Source: patent US11198695B2, “Fused ring derivative having MGAT-2 inhibitory activity” (Shionogi & Co., Ltd., priority 2017, dated 2021)
Where two headings read alike, the source gives them in different places.

Target: recombinant human MGAT2 (Homo sapiens (Human), UniProt Q3SYC2)
Test: Measurement of human MGAT2 inhibitory activity
Format: biochemical
Outline: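 RapidFire ESI-MS read-out of the diolein/diolein-d5 peak ratio gave % inhibition, with no-enzyme and full-enzyme wells as 100% and 0%. Reactions ran 1 h at room temperature at pH 7.4 (phosphate, 2 mmol/L DTT), using Flag-tagged human MGAT2 membranes from Sf9 cells and a substrate solution of 30 μmol/L 2-oleoylglycerol and 10 μmol/L oleoyl-CoA.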

[1] = read-out: IC50 (concentration exhibiting 50% enzyme inhibition), Table 52
[2] = read-out: IC50 (concentration exhibiting 50% enzyme inhibition), Table 53

Sequence of recombinant human MGAT2 (Q3SYC2 whole entry): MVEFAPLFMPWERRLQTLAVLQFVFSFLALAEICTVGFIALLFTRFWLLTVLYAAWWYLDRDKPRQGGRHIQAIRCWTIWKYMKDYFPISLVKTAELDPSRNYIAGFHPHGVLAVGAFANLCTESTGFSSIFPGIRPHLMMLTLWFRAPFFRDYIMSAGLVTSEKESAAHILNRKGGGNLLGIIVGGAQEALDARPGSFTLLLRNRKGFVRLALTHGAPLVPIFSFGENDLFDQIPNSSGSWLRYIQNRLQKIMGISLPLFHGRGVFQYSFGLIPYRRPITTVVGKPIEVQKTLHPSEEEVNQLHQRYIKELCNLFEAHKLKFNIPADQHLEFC

Row | IC50 [1] | IC50 [2] | Compound
1 | 270 nM | – | Cn1ccc(C(=O)Nc2c3c(nn2CCC2CC2)C[C@]2(CCc4cc(OCC(F)(F)F)ccc42)NC3=O)n1 [Compound I-232]
2 | 11 nM | – | C=C(C)c1ccc(-n2nc3c(c2NC(=O)CS(C)(=O)=O)C(=O)N[C@@]2(CCc4cc(OCC(F)(F)F)ccc42)C3)nc1 [Compound I-233]
3 | 9.8 nM | – | CS(=O)(=O)CC(=O)Nc1c2c(nn1CCC1CC1)C[C@]1(CCc3cc(N4CC(C(F)(F)F)C4)ccc31)NC2=O [Compound I-234]
4 | 85 nM | – | CS(=O)(=O)CC(=O)Nc1c2c(nn1CCC1CC1)C[C@]1(CCc3cc(N4CCC4)ccc31)NC2=O [Compound I-235]
5 | 16 nM | – | CC(C)(O)c1ccc(-n2nc3c(c2NC(=O)CS(C)(=O)=O)C(=O)N[C@@]2(CCc4cc(OCC(F)(F)F)ccc42)C3)nc1 [Compound I-237]
6 | 10 nM | – | CC(C)c1ccc(-n2nc3c(c2NC(=O)CS(C)(=O)=O)C(=O)N[C@@]2(CCc4cc(OCC(F)(F)F)ccc42)C3)nc1 [Compound I-238]
7 | 380 nM | – | CCCc1cccc(-n2nc3c(c2NC(=O)CS(C)(=O)=O)C(=O)N[C@@]2(CCc4cc(OCC(F)(F)F)ccc42)C3)c1 [Compound I-239]
8 | 1000 nM | – | CC(C)(O)c1cccc(-n2nc3c(c2NC(=O)CS(C)(=O)=O)C(=O)N[C@@]2(CCc4cc(OCC(F)(F)F)ccc42)C3)c1 [Compound I-240]
9 | 380 nM | – | O=C(NCc1c2c(nn1CCC1CC1)C[C@]1(CCc3cc(OCC(F)(F)F)ccc31)NC2=O)c1ccc(O)cc1 [Compound I-241]
10 | 3.6 nM | – | CS(=O)(=O)CC(=O)Nc1c2c(nn1-c1ccc(C#N)cn1)C[C@@]1(CCc3cc(C4CC4)ccc31)NC2=O [Compound I-242]
11 | 3.5 nM | – | CS(=O)(=O)CC(=O)Nc1c2c(nn1-c1ccc(C#N)cn1)C[C@]1(CCOc3cc(OCC(F)(F)F)ccc31)NC2=O [Compound I-243]
12 | 110 nM | – | COc1cccc(-n2nc3c(c2NC(=O)CS(C)(=O)=O)C(=O)N[C@@]2(CCc4cc(OCC(F)(F)F)ccc42)C3)c1 [Compound I-244]
13 | 530 nM | – | CS(=O)(=O)CC(=O)Nc1c2c(nn1-c1cccc(C#N)c1)C[C@]1(CCc3cc(OCC(F)(F)F)ccc31)NC2=O [Compound I-245]
14 | 24 nM | – | CS(=O)(=O)CC(=O)Nc1c2c(nn1-c1ccc3c(c1)CCC3)C[C@]1(CCc3cc(OCC(F)(F)F)ccc31)NC2=O [Compound I-246]
15 | 84 nM | – | CS(=O)(=O)CC(=O)Nc1c2c(nn1-c1ccc3c(c1)OC(F)(F)O3)C[C@]1(CCc3cc(OCC(F)(F)F)ccc31)NC2=O [Compound I-247]
16 | 240 nM | – | CS(=O)(=O)CC(=O)Nc1c2c(nn1-c1cccc(C3CC3)c1)C[C@]1(CCc3cc(OCC(F)(F)F)ccc31)NC2=O [Compound I-248]
17 | 3.5 nM | – | CS(=O)(=O)CC(=O)Nc1c2c(nn1CCC1CC1)C[C@@]1(CCc3cc(OCC(F)(F)F)cc(F)c31)NC2=O [Compound I-249]
18 | 150 nM | – | CCOCCn1nc2c(c1NC(=O)CS(C)(=O)=O)C(=O)N[C@@]1(CCc3cc(OCC(F)(F)F)ccc31)C2 [Compound I-250]
19 | 490 nM | – | COCCCCn1nc2c(c1NC(=O)CS(C)(=O)=O)C(=O)N[C@@]1(CCc3cc(OCC(F)(F)F)ccc31)C2 [Compound I-251]
20 | 13 nM | – | COCCCn1nc2c(c1NC(=O)CS(C)(=O)=O)C(=O)N[C@@]1(CCc3cc(OCC(F)(F)F)ccc31)C2 [Compound I-252]
21 | 95 nM | – | CS(=O)(=O)CC(=O)Nc1c2c(nn1CCCC#N)C[C@]1(CCc3cc(OCC(F)(F)F)ccc31)NC2=O [Compound I-254]

Row | IC50 [1] | IC50 [2] | Compound
22 | 17 nM | – | CS(=O)(=O)CC(=O)Nc1c2c(nn1CCCCC(F)(F)F)C[C@]1(CCc3cc(OCC(F)(F)F)ccc31)NC2=O [Compound I-255]
23 | 160 nM | – | CS(=O)(=O)CC(=O)Nc1c2c(nn1CCC(F)(F)F)C[C@]1(CCc3cc(OCC(F)(F)F)ccc31)NC2=O [Compound I-256]
24 | 80 nM | – | CS(=O)(=O)CC(=O)Nc1c2c(nn1CC1CCCO1)C[C@]1(CCc3cc(OCC(F)(F)F)ccc31)NC2=O (some centres unmarked) [Compound I-257]
25 | 120 nM | – | CS(=O)(=O)CC(=O)Nc1c2c(nn1CCC1CCOCC1)C[C@]1(CCc3cc(OCC(F)(F)F)ccc31)NC2=O [Compound I-258]
26 | 59 nM | – | CC1(C)CCC(Cn2nc3c(c2NC(=O)CS(C)(=O)=O)C(=O)N[C@@]2(CCc4cc(OCC(F)(F)F)ccc42)C3)O1 (some centres unmarked) [Compound I-259]
27 | 490 nM | – | CS(=O)(=O)CC(=O)Nc1c2c(nn1Cc1ccon1)C[C@]1(CCc3cc(OCC(F)(F)F)ccc31)NC2=O [Compound I-260]
28 | 16 nM | – | CS(=O)(=O)CC(=O)Nc1c2c(nn1CCc1ccc(F)cc1)C[C@]1(CCc3cc(OCC(F)(F)F)ccc31)NC2=O [Compound I-261]
29 | 34 nM | – | COc1ccc(-n2nc3c(c2NC(=O)CS(C)(=O)=O)C(=O)N[C@@]2(CCc4cc(OCC(F)(F)F)ccc42)C3)nc1 [Compound I-262]
30 | 4.7 nM | – | Cc1ccc(-n2nc3c(c2NC(=O)CS(C)(=O)=O)C(=O)N[C@@]2(CCc4cc(OCC(F)(F)F)ccc42)C3)nn1 [Compound I-263]
31 | 86 nM | – | Cc1cnc(-n2nc3c(c2NC(=O)CS(C)(=O)=O)C(=O)N[C@@]2(CCc4cc(OCC(F)(F)F)ccc42)C3)cn1 [Compound I-264]
32 | 36 nM | – | CS(=O)(=O)CC(=O)Nc1c2c(nn1-c1cccnn1)C[C@]1(CCc3cc(OCC(F)(F)F)ccc31)NC2=O [Compound I-265]
33 | 4.6 nM | – | Cc1ccc(-n2nc3c(c2NC(=O)CS(C)(=O)=O)C(=O)N[C@]2(CCc4cc(OCC(F)(F)F)ccc42)C3)cc1 [Compound I-266]
34 | 9.8 nM | – | Cc1cccc(-n2nc3c(c2NC(=O)CS(C)(=O)=O)C(=O)N[C@]2(CCc4cc(OCC(F)(F)F)ccc42)C3)c1 [Compound I-267]
35 | 5.5 nM | – | CS(=O)(=O)CC(=O)Nc1c2c(nn1-c1ccc(F)cc1)C[C@@]1(CCc3cc(OCC(F)(F)F)ccc31)NC2=O [Compound I-269]
36 | 2.8 nM | – | Cc1ccc(-n2nc3c(c2NC(=O)CS(C)(=O)=O)C(=O)N[C@]2(CCc4cc(OCC(F)(F)F)ccc42)C3)nc1 [Compound I-270]
37 | 780 nM | – | CS(=O)(=O)CC(=O)Nc1c2c(nn1-c1cnccn1)C[C@@]1(CCc3cc(OCC(F)(F)F)ccc31)NC2=O [Compound I-271]
38 | 20 nM | – | CS(=O)(=O)CC(=O)Nc1c2c(nn1-c1ccncn1)C[C@@]1(CCc3cc(OCC(F)(F)F)ccc31)NC2=O [Compound I-272]
39 | 20 nM | – | CS(=O)(=O)CC(=O)Nc1c2c(nn1C1CCCCC1)C[C@@]1(CCc3cc(OCC(F)(F)F)ccc31)NC2=O [Compound I-273]
40 | 3.9 nM | – | Cc1ccc(-n2nc3c(c2NC(=O)CS(C)(=O)=O)C(=O)N[C@@]2(CCOc4cc(OCC(F)(F)F)ccc42)C3)cc1 [Compound I-274]
41 | 29 nM | – | O=C1N[C@@]2(CCc3cc(OCC(F)(F)F)cc(F)c32)Cc2nn(CCC3CC3)c(-c3nnn[nH]3)c21 [Compound I-278]
42 | 50.5 nM | – | CS(=O)(=O)NC(=O)c1c2c(nn1CCC1CC1)C[C@]1(CCc3cc(OCC(F)(F)F)ccc31)NC2=O [Compound I-279]

Row | IC50 [1] | IC50 [2] | Compound
43 | 48 nM | – | O=C1N[C@@]2(CCc3cc(OCC(F)(F)F)ccc32)Cc2nn(CCC3CC3)c(-c3nn[nH]n3)c21 [Compound I-280]
44 | 72 nM | – | CS(=O)(=O)CC(=O)Nc1c2c(nn1CCC1CC1)C[C@]1(CCc3cc(CN4CC(F)(F)C4)ccc31)NC2=O [Compound I-281]
45 | 9.35 nM | – | CS(=O)(=O)CC(=O)Nc1c2c(nn1-c1ccc(C#N)cn1)C[C@]1(CCc3cc(F)cc(F)c31)NC2=O [Compound I-284]
46 | 3.5 nM | – | CS(=O)(=O)CC(=O)Nc1c2c(nn1-c1ccc(C(F)(F)F)cn1)C[C@]1(CCc3cc(F)cc(F)c31)NC2=O [Compound I-285]
47 | – | 46 nM | CS(=O)(=O)CC(=O)Nc1c2c(nn1CCC1CC1)C1(Cc3ccc(OCC(F)(F)F)cc3C1)NC2=O (centres unmarked) [II-1]
48 | – | 32 nM | CS(=O)(=O)CC(=O)Nc1c2c(nn1-c1ccc(C#N)cn1)C1(Cc3cc(F)c(F)cc3C1)NC2=O [II-4]
49 | – | 4.6 nM | Cc1cccc(-n2nc3c(c2NC(=O)CS(C)(=O)=O)C(=O)N[C@@]2(CCOc4cc(OCC(F)(F)F)ccc42)C3)c1 [II-5]
50 | – | 19 nM | COc1ccc(-n2nc3c(c2NC(=O)CS(C)(=O)=O)C(=O)N[C@@]2(CCOc4cc(OCC(F)(F)F)ccc42)C3)cc1 [II-6]
51 | – | 20 nM | CS(=O)(=O)CC(=O)Nc1c2c(nn1-c1ccncn1)C[C@]1(CCOc3cc(OCC(F)(F)F)ccc31)NC2=O [II-7]
52 | – | 9.5 nM | CS(=O)(=O)CC(=O)Nc1c2c(nn1CCC1CC1)C[C@@]1(CCOc3cc(OCC(F)(F)F)ccc31)NC2=O [II-9]
53 | – | 64 nM | CS(=O)(=O)CC(=O)Nc1c2c(nn1C1CC3(COC3)C1)C[C@]1(CCc3cc(OCC(F)(F)F)ccc31)NC2=O [II-11]
54 | – | 35 nM | CS(=O)(=O)CC(=O)Nc1c2c(nn1CC1CC(F)(F)C1)C[C@]1(CCc3cc(OCC(F)(F)F)ccc31)NC2=O [II-12]
55 | – | 27 nM | CS(=O)(=O)CC(=O)Nc1c2c(nn1CCc1ccccc1F)C[C@]1(CCc3cc(OCC(F)(F)F)ccc31)NC2=O [II-13]
56 | – | 12 nM | CS(=O)(=O)CC(=O)Nc1c2c(nn1C1CCCCC1)C[C@]1(CCOc3cc(OCC(F)(F)F)ccc31)NC2=O [II-15]
57 | – | 28 nM | CS(=O)(=O)CC(=O)Nc1c2c(nn1-c1ccc(C#N)cn1)CC1(CN(Cc3ccc(C(F)(F)F)cc3)C1)NC2=O [II-16]
58 | – | 38 nM | CS(=O)(=O)CC(=O)Nc1c2c(nn1-c1ccc(C#N)cn1)C[C@](c1ccc(OCC(F)(F)F)cc1)(C(F)(F)F)NC2=O [II-17]
59 | – | 47 nM | CS(=O)(=O)CC(=O)Nc1c2c(nn1CCOCC(F)F)C[C@@]1(CCc3cc(OCC(F)(F)F)ccc31)NC2=O [II-18]
60 | – | 12 nM | CS(=O)(=O)CC(=O)Nc1c2c(nn1CCCCC(F)(F)F)C[C@@]1(CCc3cc(OCC(F)(F)F)ccc31)NC2=O [II-19]
61 | – | 1.56 nM | CS(=O)(=O)CC(=O)Nc1c2c(nn1CCCOC(F)(F)F)C[C@@]1(CCc3cc(OCC(F)(F)F)ccc31)NC2=O [II-20]
62 | – | 17 nM | COCCCn1nc2c(c1NC(=O)CS(C)(=O)=O)C(=O)N[C@]1(CCc3cc(OCC(F)(F)F)ccc31)C2 [II-21]
